The target of the assay is Prostaglandin G/H synthase 1 (Homo sapiens, UniProt P23219). As to the kind of experiment: Inhibition of human COX1.
Prostaglandin G/H synthase 1, sequence (P23219 whole entry): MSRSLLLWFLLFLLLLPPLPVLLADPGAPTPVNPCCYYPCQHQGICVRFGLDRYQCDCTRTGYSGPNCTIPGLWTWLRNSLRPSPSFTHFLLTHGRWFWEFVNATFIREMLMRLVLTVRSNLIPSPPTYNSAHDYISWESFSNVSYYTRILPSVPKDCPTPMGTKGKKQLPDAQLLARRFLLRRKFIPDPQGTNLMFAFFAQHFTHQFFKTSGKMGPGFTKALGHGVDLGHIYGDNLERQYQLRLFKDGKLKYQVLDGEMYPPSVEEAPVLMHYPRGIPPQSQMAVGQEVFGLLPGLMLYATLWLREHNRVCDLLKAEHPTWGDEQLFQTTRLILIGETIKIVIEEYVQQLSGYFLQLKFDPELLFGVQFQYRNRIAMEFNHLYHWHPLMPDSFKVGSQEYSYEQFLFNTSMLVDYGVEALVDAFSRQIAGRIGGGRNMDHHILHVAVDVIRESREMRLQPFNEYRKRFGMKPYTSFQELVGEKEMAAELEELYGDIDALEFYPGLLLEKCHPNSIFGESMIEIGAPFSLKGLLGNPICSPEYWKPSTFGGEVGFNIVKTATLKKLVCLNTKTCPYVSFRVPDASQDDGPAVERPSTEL

One may read the IC50 as the concentration at which inhibition is half-maximal. Read a high IC50 as weaker potency in that assay. On to `CN(C)c1ccc(Nc2nc(-c3ccncc3)nc3c2CC(N)CC3)cc1` (stereo unspecified), for which half-maximal inhibition (IC50) was put at 4 µM.
